Test results from patent publication US8404681B2, “Xanthones, thioxanthones and acridinones as DNA-PK inhibitors” (Luitpold Pharmaceuticals, Inc., priority 2003, dated 2013).

Legend:
DNA-PK = target: T1, DNA-PK (Homo sapiens, UniProt P78527); experiment: Standard DNA-PK assay (phosphorylation of p53 peptide substrate); assay type: biochemical; conditions: purified human DNA-PK, 50 μM ATP, room temperature, read-out: IC50 (inhibition of DNA-PK enzyme activity)
T1 construct: HeLa S3 cells (ATCC CCL-2.2; Batch F12594) were raised in MEM-Joklik media; endogenous in cells; host or cells: HeLa S3 cells (ATCC CCL-2.2); Endogenous enzyme purified in house: S100-2 fraction, then Q-Sepharose FF, then SP-Sepharose FF, giving fraction IV
Experimental: Reactions were carried out at room temperature. Reactions were started by addition of ATP and stopped by application to phosphocellulose paper. Reaction products spotted onto phosphocellulose paper were washed five times with a total volume of at least 250 mL 10% acetic acid or 150 mM phosphoric acid. The paper was air dried and radioactivity was determined in a Beckman LS6000IC scintillation counter.

[1] = tested on: human colorectal carcinoma cell line, HCT-116; experiment: Radiation enhancement cellular proliferation assay (3H thymidine incorporation); assay type: cell-based; conditions: HCT-116 cells, γ-radiation at doses up to 800 rads
Experimental: To measure the ability of present DNA-PK inhibitor compounds to enhance the toxic effect of radiation treatment, the human colorectal carcinoma cell line, HCT-116, was incubated with inhibitor compounds at concentrations up to 50 μM and treated with γ-radiation at doses up to 800 rads. Cells were maintained in RPMI 1640 (Gibco) containing 10% […], 1 mM sodium pyruvate, 2 mM L-glutamine, 100 U/mL penicillin, and 100 μg/mL streptomycin at 37° C. with 5% CO2 in a humidified incubator. Cultured cells were trypsinized, counted, and seeded into 96 well plates at a concentration of 1000 cells/well. Cells were incubated with varying concentrations of the inhibitor compounds from 1.8 μM to 50 μM for 10 hr or 5 days, then the media-containing compounds were removed and replaced With fresh media without drug. After five days, ^3H thymidine (1 μCi/well) was added to each well and incubated for an additional 20 hr. The plates were frozen at −70° C. for at least 2 hr and thawed at 37° C. to lyse the cells. DNA was harvested onto glass fiber filters and ^3H thymidine incorporation determined with a Packard Matrix 96 direct beta counter. Compound dependent potentiation of radiation induced cell killing was determined by comparing the effect of radiation alone and radiation plus inhibitor compound.

[2] = tested on: MDA-MB231 (human breast carcinoma) cells; experiment: DNA double-strand break repair assay (pulse field gel electrophoresis after irradiation); assay type: cell-based; conditions: 25 Gy, at concentrations which enhanced radiation induced cell killing
Experimental: To further determine the cellular effect of DNA-PK inhibitors, an assay to measure chromosomal discontinuities was employed. Ionizing radiation induces chromosomal DNA double-strand breaks. Following high dose radiation, chromosomes can be extracted from cells and fractionated by pulse field electrophoresis to distinguish chromosomal fragments from intact larger chromosomes. Using this technique, the activity of DNA-PK inhibitors was measured.
MDA-MB231 (human breast carcinoma) cells were seeded onto T25 flasks with RPMI1640+10% FBS, 2 mM L-glutamine, penicillin G 100 U/ml-streptomycin sulfate 10 μg/ml, 1 mM Na pyruvate. When confluent, media was removed and replaced with media containing DNA-PK inhibitor or vehicle. Cells were incubated at 37° C. for 1 hr in a humidified chamber with 5% CO2. Media then was removed and flasks were filled with ice-cold D-PBS and either: (a) processed immediately; (b) irradiated (25 Gy in a ^137Cs Mark I irradiator at a flux of 335 rad/min) and processed immediately; (c) irradiated and incubated for 2 hr in complete RPMI1640+vehicle at 37° C. (in humidified 5% CO2 atmosphere to allow for DNA repair), or (d) irradiated and incubated for 2 hr in complete RPMI1640+DNA-PK inhibitor compound. […] Chromosomal DNA was visualized with SYBR-Gold (Molecular probes #S-11494) and the fluorescent image quantified on the STORM 860 (Molecular Dynamics).

O=c1c2ccccc2n(Cc2ccccc2)c2cc(N3CCOCC3)cc(O)c12 [Example 28, 10-Benzyl-1-hydroxy-3-morpholin-4-yl-10H-acridin-9-one]
IC50 (DNA-PK): 20 nM | concentration that enhanced radiation induced cell killing 2-fold [1]: 17.5 µM | DNA double-strand break repair [2]: inhibited DNA double-strand break repair
